From patent US10899747B2, “Biaryl piperidine amide compounds and methods of use thereof” (Athenex, Inc., priority 2017, dated 2021)

Assays:
Type in all cases: cell-based
IL-2 [1] = assay: IL-2 secretion by ELISA in Jurkat T cells stimulated with PMA and ionomycin; conditions: Homo sapiens, supernatants harvested at 20 hours, read-out: concentration required to achieve 50% inhibition (IC50) of IL-2
Method: Jurkat (a transformed human T cell leukemia) cells were plated in 96-well plates at a final density of 1.0-2.0×10^6 cells/ml in 150 ul of assay medium (RPMI+0.5% fetal calf serum). Compounds 403 and 413 were included at a final concentration of ≤20 uM and pre-incubated with cells for 30 minutes prior to stimulation. Mitogens PMA and ionomycin were added to the T cell receptor (TCR) complex (e.g., anti-CD3c) and CD28. Cell cultures were stimulated for 24-48 hours in a humidified incubator (37 degrees C./5% CO2). A fraction of the culture supernatant was then harvested from each well and assayed for the presence of appropriate cytokine using standard ELISA. Cytokines analyzed was IL-2. If required, the number of cytokine producing cells can be determined using intracellular staining and flow cytometry.
More specifically, Jurkat T cells were stimulated with the mitogens PMA and ionomycin in the presence of varying concentrations of compound 403 or compound 413. Supernatants were harvested at 20 hours and analyzed for IL-2 content by ELISA. IL-2 values obtained from vehicle (DMSO) treated control wells (˜2800 pg/ml) were assigned a value of 100% and used to calculate the % inhibition achieved for each compound.

IL-2 [2] = assay: PHA-IL2 (cell activation and cytokine analysis); conditions: 50% inhibition concentration class
Summary of the method: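 Cells were seeded in 96-well plates at 1.0-2.0×10^6 cells/ml in 150 ul of RPMI containing 0.5% fetal calf serum. Test compounds, at up to ≤20 uM, were preincubated with the cells for 30 minutes, then phytohemagglutinin (PHA) was added and cultures were stimulated for 24-48 hours at 37 degrees C./5% CO2. Supernatant IL-2 was then quantified by standard ELISA.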

NFAT = assay: NFAT-dependent Firefly luciferase reporter assay in Jurkat T cells stimulated with PMA and ionomycin; conditions: Homo sapiens, PMA and ionomycin for 6 hours, read-out: concentration required to achieve 50% inhibition (IC50) of NFAT-dependent luciferase activity
Method: Jurkat T cells were transiently transfected with a DNA plasmid encoding Firefly luciferase under the transcriptional control of an appropriate regulatory element that may include multimerized NFAT, AP-1, NFκB, or CREB binding sites. Cells were co-transfected with a DNA plasmid encoding Renilla luciferase under the transcriptional control of a constitutive regulatory element (e.g., HSV-TK promoter). 24 hours following transfection, cells were collected and re-seeded in 96-well plates at a final density of 1.0×10^6 cells/ml in 150 ul assay medium. Compound 413 was included at a final concentration of ≤20 uM and pre-incubated with cells for 30 minutes prior to stimulation. […] Cells were then lysed and the level of Firefly luciferase and Renilla Luciferase activity was determined using a standard assay (e.g., Promega's Dual Luciferase Reporter Assay System) and plate-reading luminometer. The ratio obtained by dividing activation induced Firefly luciferase activity by the constitutive Renilla luciferase activity was calculated and used as a quantitative measurement of cell activation.
More specifically, Jurkat T cells were co-transfected with a NFAT-dependent Firefly Luciferase reporter plasmid and a control Renilla Luciferase reporter plasmid. […] Lysates were prepared and analyzed for luciferase activity using the Dual Luciferase Reporter Assay System (Promega). […]

IC50 (IL-2 [1]): 18 nM
IC50 (IL-2 [2]): < 1000 nM
IC50 (NFAT): 9 nM
SMILES: CC(C)Oc1cccc(CCC2CCN(C(=O)COc3ccc(C#N)cc3-c3ccc(C#N)cc3)CC2)c1 [Compound 413]
